Experiment: Clearance study, liver microsomes (human)
Conditions: pH 7.4

microsomal CLint at 1 μM	Compound
81 µL/min/mg	O=C(NCc1ccccc1)c1ccc2c(c1)N=C(C1CCCCC1)c1ccccc1S2 [drawing 1779]
39 µL/min/mg	Cc1ccc(CNC(=O)c2ccc3c(c2)N=C(c2ccc(F)cc2)c2ccccc2S3)o1 [drawing 1711]
278 µL/min/mg	CCN(CCNC(=O)c1ccc2c(c1)N=C(c1ccc(F)cc1)c1ccccc1S2)c1ccccc1 [drawing 1749]
343 µL/min/mg	O=C(NCCc1ccc(Cl)cc1)c1ccc2c(c1)N=C(N1CCC(F)(F)CC1)c1ccccc1S2 [drawing 1802]
100 µL/min/mg	O=C(NCCc1ccc(Cl)cc1)c1ccc2c(c1)N=C(c1ccc(F)cc1)c1ccccc1S2 [drawing 1799]
90 µL/min/mg	O=C(NCc1cccc(Cl)c1)c1ccc2c(c1)N=C(N1CCCCC1)c1ccccc1[S+]2[O-] (centres unmarked) [drawing 1774]
255 µL/min/mg	O=C(NCc1ccc(F)cc1)c1ccc2c(c1)N=C(N1CCCCC1)c1ccccc1S2 [drawing 1738]
249 µL/min/mg	CCN(CCNC(=O)c1ccc2c(c1)N=C(C1CCCCC1)c1ccccc1S2)c1ccccc1 [drawing 1747]
96 µL/min/mg	O=C(NCc1cccc(Cl)c1)c1ccc2c(c1)N=C(N1CCC(F)CC1)c1ccccc1S2 [drawing 1714]
70 µL/min/mg	O=C(NCc1cccc(Cl)c1)c1ccc2c(c1)N=C(C1CCCCC1)c1ccccc1S2 [drawing 1777]
36 µL/min/mg	O=C(NCc1cccc(Cl)c1)c1ccc2c(c1)N=C(c1cccc(Cl)c1)c1ccccc1S2 [drawing 1729]
54 µL/min/mg	O=C(NN1CCCCC1)c1ccc2c(c1)N=C(N1CCCCC1)c1ccccc1S2 [drawing 1792]
434 µL/min/mg	O=C(NCCc1ccc(Cl)cc1)c1ccc2c(c1)N=C(N1CCCCC1)c1ccccc1S2 [drawing 1783]

The remaining lines, values behind:

Compound	microsomal CLint at 1 μM
CC(C)CNC(=O)c1ccc2c(c1)N=C(c1ccc(Cl)s1)c1ccc(F)cc1S2 [drawing 1793]	32 µL/min/mg
Cc1cccc(C2=Nc3cc(C(=O)NCc4ccc(C)o4)ccc3Sc3ccccc32)n1 [drawing 1789]	114 µL/min/mg
CCCCNC(=O)c1cnc2c(n1)N=C(c1ccccc1)c1ccccc1S2 [drawing 1722]	38 µL/min/mg
CCOC(=O)N1CCC(NC(=O)c2ccc3c(c2)N=C(c2ccc(Cl)cc2)c2ccccc2S3)CC1 [drawing 1726]	88 µL/min/mg
CCCCNC(=O)c1ccc2c(c1)N=C(c1ccc(Cl)s1)c1ccc(Cl)cc1S2 [drawing 1694]	15 µL/min/mg
CC(C)CNC(=O)c1ccc2c(c1)N=C(c1ccc(Cl)cc1)c1ccc(Cl)cc1S2 [drawing 1718]	4 µL/min/mg
O=C(NCCC(F)(F)F)c1ccc2c(c1)N=C(c1cccc(Cl)c1)c1ccccc1S2 [drawing 1721]	18 µL/min/mg
CC(NC(=O)c1ccc2c(c1)N=C(c1ccc(Cl)cc1)c1ccccc1S2)c1ccccc1 (centres unmarked) [drawing 1804]	18 µL/min/mg
O=C(NC1CCC(F)(F)CC1)c1ccc2c(c1)N=C(c1ccc(Cl)s1)c1ccccc1S2 [drawing 1699]	20 µL/min/mg
O=C(NCCCC(F)(F)F)c1ccc2c(c1)N=C(c1cccc(F)c1)c1ccccc1S2 [drawing 1719]	24 µL/min/mg
CCCCNC(=O)c1ccc2c(c1)N=C(c1ccc(Cl)cn1)c1ccc(F)cc1S2 [drawing 1778]	29 µL/min/mg
CCCCNC(=O)c1ccc2c(c1)N=C(c1ccc(Cl)cc1)c1cc(Cl)ccc1S2 [drawing 1688]	13 µL/min/mg
O=C(NCc1cccc(Cl)c1)c1ccc2c(c1)N=C(c1ccc(F)cc1)c1ccccc1[S+]2[O-] (centres unmarked) [drawing 1790]	24 µL/min/mg
CC(CNC(=O)c1ccc2c(c1)N=C(c1cccc(Cl)c1)c1ccccc1S2)c1ccccc1 (centres unmarked) [drawing 1755]	56 µL/min/mg
CCCCNC(=O)c1ccc2c(c1)N=C(c1cccc(Cl)c1)c1cc(Cl)ccc1S2 [drawing 1750]	13 µL/min/mg
Cc1cccc(C2=Nc3cc(C(=O)NCC(C)C)ccc3Sc3ccccc32)n1 [drawing 1692]	35 µL/min/mg
CCCCNC(=O)c1ccc2c(c1)N=C(c1ccc(Cl)cn1)c1cc(F)ccc1S2 [drawing 1748]	57 µL/min/mg
COc1ccc(C2=Nc3cc(C(=O)NCCC(C)C)ccc3Sc3ccccc32)cc1 [drawing 1785]	123 µL/min/mg
Cc1csc(CNC(=O)c2ccc3c(c2)N=C(c2ccc(Cl)s2)c2ccccc2S3)c1 [drawing 1707]	27 µL/min/mg
Cc1ccc(CNC(=O)c2ccc3c(c2)N=C(c2cccc(Cl)c2)c2ccccc2S3)o1 [drawing 1705]	37 µL/min/mg
CCCCNC(=O)c1ccc2c(c1)N=C(c1ccc(Cl)s1)c1cc(Cl)ccc1S2 [drawing 1678]	22 µL/min/mg
CCCCNC(=O)c1ccc2c(c1)N=C(c1ccc(Cl)cc1)c1cc(F)ccc1S2 [drawing 1702]	12 µL/min/mg
O=C(NCCCc1ccccc1)c1ccc2c(c1)N=C(c1cccc(Cl)c1)c1ccccc1S2 [drawing 1765]	72 µL/min/mg
O=C(NCCc1ccccc1)c1ccc2c(c1)N=C(c1ccc(Cl)cc1)c1ccccc1S2 [drawing 1745]	62 µL/min/mg
O=C(NCCCC(F)(F)F)c1ccc2c(c1)N=C(c1ccc(Cl)s1)c1ccccc1S2 [drawing 1655]	31 µL/min/mg
O=C(NNCC(F)(F)F)c1ccc2c(c1)N=C(c1ccc(Cl)cc1)c1ccccc1S2 [drawing 1696]	21 µL/min/mg
CC(C)CNC(=O)c1ccc2c(c1)N=C(c1ccsc1)c1ccccc1S2 [drawing 1753]	546 µL/min/mg
CC(CNC(=O)c1ccc2c(c1)N=C(c1ccc(Cl)cc1)c1cc(F)ccc1S2)c1ccccc1 (centres unmarked) [drawing 1716]	39 µL/min/mg
COc1cccc(C2=Nc3cc(C(=O)NCCCC(F)(F)F)ccc3Sc3ccccc32)n1 [drawing 1667]	24 µL/min/mg
CC(C)CNC(=O)c1ccc2c(c1)N=C(c1ccc(Cl)cn1)c1ccc(F)cc1S2 [drawing 1746]	25 µL/min/mg

Experiment: Clearance study, liver microsomes (rats)
Conditions: rat, pH 7.4

microsomal CLint at 1 μM	Compound
351 µL/min/mg	O=C(NCc1ccccc1)c1ccc2c(c1)N=C(C1CCCCC1)c1ccccc1S2 [drawing 1779]
258 µL/min/mg	Cc1ccc(CNC(=O)c2ccc3c(c2)N=C(c2ccc(F)cc2)c2ccccc2S3)o1 [drawing 1711]
484 µL/min/mg	CCN(CCNC(=O)c1ccc2c(c1)N=C(c1ccc(F)cc1)c1ccccc1S2)c1ccccc1 [drawing 1749]
289 µL/min/mg	O=C(NCCc1ccc(Cl)cc1)c1ccc2c(c1)N=C(N1CCC(F)(F)CC1)c1ccccc1S2 [drawing 1802]
208 µL/min/mg	O=C(NCCc1ccc(Cl)cc1)c1ccc2c(c1)N=C(c1ccc(F)cc1)c1ccccc1S2 [drawing 1799]
416 µL/min/mg	O=C(NCc1cccc(Cl)c1)c1ccc2c(c1)N=C(N1CCCCC1)c1ccccc1[S+]2[O-] (centres unmarked) [drawing 1774]
735 µL/min/mg	O=C(NCc1ccc(F)cc1)c1ccc2c(c1)N=C(N1CCCCC1)c1ccccc1S2 [drawing 1738]
379 µL/min/mg	CCN(CCNC(=O)c1ccc2c(c1)N=C(C1CCCCC1)c1ccccc1S2)c1ccccc1 [drawing 1747]
477 µL/min/mg	O=C(NCc1cccc(Cl)c1)c1ccc2c(c1)N=C(N1CCC(F)CC1)c1ccccc1S2 [drawing 1714]
458 µL/min/mg	O=C(NCc1cccc(Cl)c1)c1ccc2c(c1)N=C(C1CCCCC1)c1ccccc1S2 [drawing 1777]
74 µL/min/mg	O=C(NCc1cccc(Cl)c1)c1ccc2c(c1)N=C(c1cccc(Cl)c1)c1ccccc1S2 [drawing 1729]
536 µL/min/mg	O=C(NN1CCCCC1)c1ccc2c(c1)N=C(N1CCCCC1)c1ccccc1S2 [drawing 1792]
506 µL/min/mg	O=C(NCCc1ccc(Cl)cc1)c1ccc2c(c1)N=C(N1CCCCC1)c1ccccc1S2 [drawing 1783]

The next lines start with the compound.

Compound	microsomal CLint at 1 μM
CC(C)CNC(=O)c1ccc2c(c1)N=C(c1ccc(Cl)s1)c1ccc(F)cc1S2 [drawing 1793]	49 µL/min/mg
Cc1cccc(C2=Nc3cc(C(=O)NCc4ccc(C)o4)ccc3Sc3ccccc32)n1 [drawing 1789]	632 µL/min/mg
CCCCNC(=O)c1cnc2c(n1)N=C(c1ccccc1)c1ccccc1S2 [drawing 1722]	44 µL/min/mg
CCOC(=O)N1CCC(NC(=O)c2ccc3c(c2)N=C(c2ccc(Cl)cc2)c2ccccc2S3)CC1 [drawing 1726]	89 µL/min/mg
CCCCNC(=O)c1ccc2c(c1)N=C(c1ccc(Cl)s1)c1ccc(Cl)cc1S2 [drawing 1694]	55 µL/min/mg
CC(C)CNC(=O)c1ccc2c(c1)N=C(c1ccc(Cl)cc1)c1ccc(Cl)cc1S2 [drawing 1718]	37 µL/min/mg
O=C(NCCC(F)(F)F)c1ccc2c(c1)N=C(c1cccc(Cl)c1)c1ccccc1S2 [drawing 1721]	40 µL/min/mg
CC(NC(=O)c1ccc2c(c1)N=C(c1ccc(Cl)cc1)c1ccccc1S2)c1ccccc1 (centres unmarked) [drawing 1804]	62 µL/min/mg
O=C(NC1CCC(F)(F)CC1)c1ccc2c(c1)N=C(c1ccc(Cl)s1)c1ccccc1S2 [drawing 1699]	158 µL/min/mg
O=C(NCCCC(F)(F)F)c1ccc2c(c1)N=C(c1cccc(F)c1)c1ccccc1S2 [drawing 1719]	182 µL/min/mg
CCCCNC(=O)c1ccc2c(c1)N=C(c1ccc(Cl)cn1)c1ccc(F)cc1S2 [drawing 1778]	227 µL/min/mg
CCCCNC(=O)c1ccc2c(c1)N=C(c1ccc(Cl)cc1)c1cc(Cl)ccc1S2 [drawing 1688]	52 µL/min/mg
O=C(NCc1cccc(Cl)c1)c1ccc2c(c1)N=C(c1ccc(F)cc1)c1ccccc1[S+]2[O-] (centres unmarked) [drawing 1790]	76 µL/min/mg
CC(CNC(=O)c1ccc2c(c1)N=C(c1cccc(Cl)c1)c1ccccc1S2)c1ccccc1 (centres unmarked) [drawing 1755]	174 µL/min/mg
CCCCNC(=O)c1ccc2c(c1)N=C(c1cccc(Cl)c1)c1cc(Cl)ccc1S2 [drawing 1750]	52 µL/min/mg
Cc1cccc(C2=Nc3cc(C(=O)NCC(C)C)ccc3Sc3ccccc32)n1 [drawing 1692]	204 µL/min/mg
CCCCNC(=O)c1ccc2c(c1)N=C(c1ccc(Cl)cn1)c1cc(F)ccc1S2 [drawing 1748]	131 µL/min/mg
COc1ccc(C2=Nc3cc(C(=O)NCCC(C)C)ccc3Sc3ccccc32)cc1 [drawing 1785]	177 µL/min/mg
Cc1csc(CNC(=O)c2ccc3c(c2)N=C(c2ccc(Cl)s2)c2ccccc2S3)c1 [drawing 1707]	90 µL/min/mg
Cc1ccc(CNC(=O)c2ccc3c(c2)N=C(c2cccc(Cl)c2)c2ccccc2S3)o1 [drawing 1705]	147 µL/min/mg
CCCCNC(=O)c1ccc2c(c1)N=C(c1ccc(Cl)s1)c1cc(Cl)ccc1S2 [drawing 1678]	63 µL/min/mg
CCCCNC(=O)c1ccc2c(c1)N=C(c1ccc(Cl)cc1)c1cc(F)ccc1S2 [drawing 1702]	74 µL/min/mg
O=C(NCCCc1ccccc1)c1ccc2c(c1)N=C(c1cccc(Cl)c1)c1ccccc1S2 [drawing 1765]	163 µL/min/mg
O=C(NCCc1ccccc1)c1ccc2c(c1)N=C(c1ccc(Cl)cc1)c1ccccc1S2 [drawing 1745]	144 µL/min/mg
O=C(NCCCC(F)(F)F)c1ccc2c(c1)N=C(c1ccc(Cl)s1)c1ccccc1S2 [drawing 1655]	136 µL/min/mg
O=C(NNCC(F)(F)F)c1ccc2c(c1)N=C(c1ccc(Cl)cc1)c1ccccc1S2 [drawing 1696]	39 µL/min/mg
CC(C)CNC(=O)c1ccc2c(c1)N=C(c1ccsc1)c1ccccc1S2 [drawing 1753]	427 µL/min/mg
CC(CNC(=O)c1ccc2c(c1)N=C(c1ccc(Cl)cc1)c1cc(F)ccc1S2)c1ccccc1 (centres unmarked) [drawing 1716]	165 µL/min/mg
COc1cccc(C2=Nc3cc(C(=O)NCCCC(F)(F)F)ccc3Sc3ccccc32)n1 [drawing 1667]	144 µL/min/mg
CC(C)CNC(=O)c1ccc2c(c1)N=C(c1ccc(Cl)cn1)c1ccc(F)cc1S2 [drawing 1746]	175 µL/min/mg

Source: patent US20080090805A1, “CB-1 MODULATING COMPOUNDS AND THEIR USE” (ACADIA PHARMACEUTICALS INC., priority 2005, published 2008)
